# Measurements from patent EP0080940B1, “Derivatives of 2-phenyl-morpholine and medical compositions” (LABORATOIRE L. LAFON Société anonyme dite:, priority 1981, dated 1983).
# Read-outs that look alike come from different tables or passages of the source.
# What was measured:
# Assay type in all cases: in vivo
# [1] = Acute toxicity by the i.p. route (DL-0, DL-50); conditions: mouse, in vivo, ip; souris mâle, voie i.p.
# Protocol: (§1) On a résumé ci-après les résultats des essais qui ont été entrepris chez l'animal avec le CRL 40914, ce produit étant administré, sauf indications contraires, en solution dans l'eau (à pH 5) par voie intrapéritonéale sous un volume de 20 ml/kg chez la souris mâle et de 5 ml/kg chez le rat mâle.
# (§2) Chez la souris mâle, la DL-0 (dose maximale non mortelle) par voie i.p. est supérieure à 128 mg/kg.
# (§3) On a résumé ci-après les résultats des essais qui ont été entrepris chez l'animal avec le CRL 40915, les modalités opératoires étant celles données ci-dessus pour le CR L 40914.
# (§4) Chez la souris mâle, la DL-0 (dose maximale non mortelle) par voie i.p. est supérieure à 256 mg/kg, et la DL-50 par voie i.p. est de l'ordre de 500 mg/kg environ.
# souris mâle = experiment: Acute toxicity by the i.p. route (DL-0, DL-50); conditions: voie i.p.
# Protocol: as §1, §2, §3, §4
# souris [2] = experiment: Global behaviour and reactivity, mouse
# Protocol: as §1
# (§5) Des lots de 3 animaux sont observés avant, puis 15 min, 30 min, 1 h, 2 h, 3 h et 24 h après l'administration de CRL 40914. On observe ce qui suit:
# as §3
# rat = experiment: Global behaviour and reactivity, rat; conditions: rat
# Protocol: as §1, §5, §3
# souris [3] = experiment: Interaction with apomorphine, mouse
# Protocol: Des lots de 6 souris reçoivent le CRL 40914 une demi-heure avant l'injection sous-cutanée d'apomorphine, à la dose de 1 mg/kg ou 16 mg/kg.
# as §3
# rats [4] = experiment: Interaction with apomorphine, rat; conditions: rat
# Protocol: Le CRL 40914 est administré aux rats une demi-heure avant l'injection sous-cutanée de 0,5 mg/kg d'apomorphine.
# as §3
# rats [5] = experiment: Interaction with amphetamine; conditions: rat
# Protocol: L'amphétamine (2 mg/kg) est injectée par voie intrapéritonéale à des lots de 12 rats, une demi-heure après l'administration de CRL 40914.
# as §3
# souris [6] = experiment: Interaction with reserpine; conditions: 128 mg/kg
# Protocol: Quatre heures après l'injection intrapéritonéale de 2,5 mg/kg de réserpine, des lots de 6 souris reçoivent le CRL 40914.
# as §3
# souris [7] = experiment: Interaction with oxotremorine
# Protocol: Le CRL 40914 est administré à des lots de 6 souris une demi-heure avant l'injection intrapéritonéale de 0,5 mg/kg d'oxotrémorine.
# as §3
# souris [8] = experiment: Four plates test, traction and electroshock; conditions: 32 mg/kg et 128 mg/kg
# Source text: Le test est pratiqué sur des lots de 10 souris, une demi-heure après l'administration de CRL 40914.
# as §3
# souris [9] = experiment: Action on spontaneous motility (actimeter); conditions: 32 mg/kg et 128 mg/kg
# Protocol: Une demi-heure après avoir reçu le CRL 40914, des souris sont placées en actimètre où leur motilité est enregistrée pendant 30 min.
# as §3
# souris [10] = experiment: Motility reduced by habituation to the enclosure
# Protocol: Après 18 h de séjour dans les actimètres, les souris (6 par dose, 12 témoins) reçoivent le CRL 40914. Elles sont aussitôt replacées dans leurs enceintes respectives et, une demi-heure plus tard, on enregistre leur motilité pendant 30 min.
# as §3
# souris [11] = experiment: Motility reduced by hypoxic aggression
# Protocol: Une demi-heure après avoir reçu le CRL 40914, les souris (10 par dose, 20 témoins) sont soumises à une anoxie hypobare aiguë [dépression de 600 mm Hg (soit environ 8 x10^4 pascals) en 90 s puis détente de 45 s] puis elles sont placées en actimètre où leur motilité est enregistrée pendant 10min.
# as §3
# souris [12] = experiment: Asphyxic anoxia (gallamine triethiodide); conditions: 8 mg/kg, 32 mg/kg et 128 mg/kg, triiodoéthylate de gallamine
# Protocol: Des lots de 10 souris reçoivent le CRL 40914 une demi-heure avant l'administration intrapéritonéale de 32 mg/kg de triiodoéthylate de gallamine (agent curarisant de référence).
# as §3
# souris [13] = experiment: Interaction with yohimbine, temperature; conditions: yohimbine 0,5 mg/kg i.p. alone
# Protocol: Des lots de 12 souris reçoivent une injection intrapéritonéale de 0,5 mg/kg de yohimbine, une demi-heure avant l'administration de CRL 40914.
# souris [14] = experiment: Interaction with yohimbine, spontaneous motility; conditions: yohimbine 0,5 mg/kg i.p. alone
# Protocol: Des lots de 12 souris reçoivent la yohimbine (0,5 mg/kg i.p.) et le CRL 40914 respectivement 60 et 30 min avant d'être placées en actimètre où leur motilité est enregistrée pendant une demi-heure.
smiles,measurement,setting,value
"Cc1ccccc1C1CN(C)CCO1 (stereo not shown) [CRL 40915, Chlorhydratede 2-o-tolyl-4-méthyl-morpholine]",LD50,[1],~500 mg/kg
same,DL-0 (dose maximale non mortelle),souris mâle,> 256 mg/kg
same,symptômes,souris [2]; 2 mg/kg i.p.,pas de symptômes nets
same,sédation,souris [2]; 8 mg/kg i.p.,sédation fugace pendant 15 à 30 minutes
same,hypothermie,"souris [2]; 8 mg/kg i.p., pendant 1 heure","-1,5 °C"
same,sédation,souris [2]; 32 mg/kg i.p.,sédation pendant 1 heure
same,hypothermie,"souris [2]; 32 mg/kg i.p., pendant 1 heure","-2,8 °C"
same,convulsions,souris [2]; 128 mg/kg i.p.,convulsions pendant 15 minutes
same,hyporéactivité au toucher,souris [2]; 128 mg/kg i.p.,hyporéactivité au toucher pendant 15 minutes
same,salivation et lacrymation,souris [2]; 128 mg/kg i.p.,salivation et lacrymation pendant 30 minutes
same,sédation,souris [2]; 128 mg/kg i.p.,sédation avec diminution de la réaction d'agressivité pendant 2 heures
same,hypothermie,"souris [2]; 128 mg/kg i.p., pendant 2 heures","-2,9 °C"
same,signes,rat; 1 mg/kg i.p.,pas de signes particuliers
same,mydriase,rat; 4 mg/kg i.p.,mydriase modérée pendant 30 minutes
same,sédation,rat; 4 mg/kg i.p.,sédation pendant 30 minutes
same,mydriase,rat; 16 mg/kg i.p.,mydriase pendant 30 à 60 minutes
same,piloérection,rat; 16 mg/kg i.p.,piloérection
same,sédation,rat; 16 mg/kg i.p.,sédation pendant 1 à 2 heures
same,mydriase,rat; 64 mg/kg i.p.,mydriase pendant 1 heure
same,piloérection,rat; 64 mg/kg i.p.,piloérection pendant 1 heure
same,sédation,rat; 64 mg/kg i.p.,sédation pendant 1 à 2 heures
same,hypothermie,"rat; 64 mg/kg i.p., pendant 30 à 60 minutes","-1,9 °C"
same,action hypothermisante de l'apomorphine,souris [3]; 32 mg/kg et 128 mg/kg,s'oppose aux doses de 32 mg/kg et 128 mg/kg à l'action hypothermisante de l'apomorphine
same,indices de verticalisation et de stéréotypies (apomorphine),"souris [3]; 128 mg/kg, faible dose (1 mg/kg) d'apomorphine",diminue les indices de verticalisation et de stéréotypies
same,effet intrinsèque sur la température,souris [3]; doses voisines de 32 mg/kg,effet hypothermisant intrinsèque
same,stéréotypies produites par l'apomorphine,rats [4],ne modifie pas les stéréotypies produites par l'apomorphine
same,stéréotypies amphétaminiques,rats [5],ne sont pas modifiées
same,hypothermie réserpinique,souris [6],aggrevation de I-hypothermie réserpinique
same,ptosis réserpinique,souris [6],le ptosis déjà maximal n'est pas modifié
same,effet intrinsèque sur la température,souris [7]; 32 mg/kg et 128 mg/kg,effet hypothermisant intrinsèque
same,hypothermie induite par l'oxotrémorine,souris [7]; 32 mg/kg et 128 mg/kg,s'oppose à l'hypothermie induite par l'oxotrémorine
same,tremblements induits par l'oxotrémorine,souris [7]; 128 mg/kg,semblent partiellement antagonisés
same,signes de stimulation cholinergique périphérique provoqués par l'oxotrémorine,"souris [7]; oxotrémorine 0,5 mg/kg i.p.",laisse inchangés les signes de stimulation cholinergique périphérique
same,déficit moteur (traction),souris [8],ne provoque pas de déficit moteur majeur
same,effets convulsivants de l'électrochoc,souris [8],s'oppose aux effets convulsivants de l'électrochoc
same,nombre de passages punis (test des quatre plaques),souris [8],diminue le nombre de passages punis
same,activité motrice spontanée,souris [9],diminution importante de l'activité motrice spontanée
same,activité motrice chez la souris habituée à son enceinte,souris [10],ne provoque pas de reprise de l'activité
same,récupération motrice après agression hypoxique,souris [11],n'entraîne pas d'amélioration de la récupération motrice
same,récupération motrice après agression hypoxique,souris [11]; 32 mg/kg et 128 mg/kg,aggravation
same,apparition des convulsions et de la mort (anoxie asphyxique),souris [12],retarde l'apparition des convulsions et de la mort
"COC(=O)[C@@H]1[C@H]2C[C@H]3c4[nH]c5ccccc5c4CCN3C[C@@H]2CC[C@@H]1O [yohimbine, reference compound]",température rectale,souris [13],ne modifie pas la température rectale
same,activité motrice spontanée,souris [14],ne modifie pas l'activité motrice spontanée
